# Test results published in patent US7872002B2, “Therapeutic pyrazoloquinoline derivatives” (Helicon Therapeutics, Inc., priority 2007, dated 2011).
# Biological target: GABAA central benzodiazepine receptor
# Assay: Benzodiazepine Binding Assay ((3H)-flunitrazepam, rat whole brain except cerebellum)
# Settings: read-out: BZ binding assay (IC50); 1 nM (3H)-flunitrazepam, 60 minutes at 25° C., pH 7.4; with or without 30 μM GABA
row,IC50 [nM],Compound
1,1 to 1000,"O=c1c2c[nH]c3c(N4CCOCC4)cc(N4CCOCC4)cc3c-2nn1-c1ccccc1 [Compound 58a, 6,8-Bis(morpholin-4-yl)-2-phenyl-2,5-dihydro-pyrazolo[4,3-c]quinolin-3-one]"
2,1 to 1000,"CC(C)N1CCN(c2cc(N3CCN(C(C)C)CC3)c3[nH]cc4c(=O)n(-c5ccccc5)nc-4c3c2)CC1 [Compound 58b, 6,8-Bis(4-iso-propylpiperazin-1-yl)-2-phenyl-2,5-dihydro-pyrazolo[4,3-c]quinolin-3-one]"
